Results from US5607691A, “Compositions and methods for enhanced drug delivery” (priority 1995, dated 1997).
Where a name gives a salt, the structure may show the parent alone.

test: in vitro; type: in vitro ADME, human; conditions: Table 5; human serum, 37° C.
Summary of the method: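 Complex from 6 mM ethanol stock added to freshly defrosted human serum at 37° C. Aliquots quenched in 2% zinc sulfate, centrifuged, and supernatant analysed by reversed-phase C8 HPLC for % remaining by peak area. Half-life from slope of ln % remaining vs time.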

For “digitoxigenin-3-(O-acetyl-D,L-carnitine) ester, (D isomer), chloride salt”, which “Serum Half-life” value is on record?
Its value is ~ 50 min.

Which “Serum Half-life” value does the source give for “digoxin-12-{N-[6-(N',N',N'-trimethylamino)hexanoyloxymethyl]glycinoyloxymethyl} carbonate-3"',4"'-cyclic carbonate, bromide salt” here?
The value was 7 min.

same assay, conditions: human, serum

Which “Serum Half-life” value does the source give for `CC(=O)[C@H]1CC[C@H]2[C@@H]3CC=C4C=C(OC(=O)C[N+](C)(C)C)CC[C@]4(C)[C@H]3CC[C@]12C.[Br-]` [progesterone-3-betainoyl enol ester, bromide salt] here?
The value was 1.6 min.

same assay, conditions: human, serum, Table 5; human serum, 37° C.; read-out: Serum Half-life (converted)

With `CCN(CC)C(=O)COC(=O)Cc1c(C)n(C(=O)c2ccc(Cl)cc2)c2ccc(OC)cc12` [indomethacin (N,N-diethylglycolamide) ester] as the compound, how does the half-life read?
The half-life was 22.8 min.

For `CCOC(=O)Cc1c(C)n(C(=O)c2ccc(Cl)cc2)c2ccc(OC)cc12` [indomethacin ethyl ester, reference compound], which half-life is on record?
Its half-life is > 5760 min.

Which half-life does the source give for `COc1ccc2c(c1)c(CC(=O)COC(=O)OCC[N+](C)(C)C)c(C)n2C(=O)c1ccc(Cl)cc1` [indomethacin hydroxymethyl ketone choline iodide carbonate] here?
The half-life was 1.08 min.

For `COc1ccc2c(c1)c(CC(=O)CO)c(C)n2C(=O)c1ccc(Cl)cc1` [indomethacin hydroxymethyl ketone], which half-life is on record?
The half-life was 900 min.

With `COC(=O)Cc1c(C)n(C(=O)c2ccc(Cl)cc2)c2ccc(OC)cc12` [indomethacin methyl ester, reference compound] as the compound, how does the half-life read?
Its half-life is 8640 min.

With `CC(=O)O[C@H](CC(=O)OC1N=C(c2ccccc2Cl)c2cc(Cl)ccc2NC1=O)C[N+](C)(C)C` (stereo partly shown) [lorazepam-3-(O-acetylcarnitine) ester chloride salt] as the compound, how does the half-life read?
The half-life was 312 min.

For `C[N+](C)(C)CCOC(=O)OC1N=C(c2ccccc2Cl)c2cc(Cl)ccc2NC1=O` (stereo not shown) [lorazepam-3-choline carbonate, chloride salt], which half-life is on record?
Its half-life is 132 min.

With `COc1ccc2c(c1)c(CCNC(C)=O)cn2C(=O)OCC[N+](C)(C)C` [melatonin-1-choline carbamate, bromide salt] as the compound, how does the half-life read?
Its half-life is 900 min.

With `CN(Cc1cnc2nc(N)nc(N)c2n1)c1ccc(C(=O)N[C@@H](CCC(=O)OCOC(=O)CCC[N+](C)(C)C)C(=O)OCOC(=O)CCC[N+](C)(C)C)cc1` [methotrexate-bis-(4-trimethylammoniobutyroyloxymethyl ester), diiodide salt] as the compound, how does the half-life read?
Its half-life is 108 min.

Which half-life does the source give for `CN(Cc1cnc2nc(N)nc(N)c2n1)c1ccc(C(=O)N[C@@H](CCC(=O)OCC[N+](C)(C)C)C(=O)OCC[N+](C)(C)C)cc1` [methotrexate-bis-choline ester, dibromide salt] here?
Its half-life is 840 min.

Which half-life does the source give for `CCn1cc(C(=O)OCOC(=O)CCCCC[N+](C)(C)C)c(=O)c2ccc(C)nc21` [nalidixic acid 6-(N,N,N-trimethylamino)-hexanoyloxymethyl ester, iodide salt] here?
The half-life was 4.8 min.

For `CCn1cc(C(=O)OCC[N+](C)(C)C)c(=O)c2ccc(C)nc21` [nalidixic acid, choline ester, bromide salt], which half-life is on record?
The half-life was 66 min.

With `CCn1cc(C(=O)OCOC(=O)OCC[N+](C)(C)C)c(=O)c2ccc(C)nc21` [nalidixic acid, cholinecarbonato methyl ester, iodide salt] as the compound, how does the half-life read?
The half-life was 1.27 min.

Which half-life does the source give for `O=C(OCCc1ccc([N+](=O)[O-])cc1)c1cccnc1` [p-nitrophenylethyl alcohol nicotinate ester] here?
Its half-life is 0.433 min.

Which half-life does the source give for `C[n+]1cccc(C(=O)OCCc2ccc([N+](=O)[O-])cc2)c1` [p-nitrophenylethyl alcohol trigonelline ester] here?
The half-life was 28 min.

Which half-life does the source give for `CC(=O)[C@H]1CC[C@H]2[C@@H]3CC=C4C=C(OC(=O)CCC[N+](C)(C)C)CC[C@]4(C)[C@H]3CC[C@]12C` [progesterone-3-(4-N,N,N-trimethylammoniobutyrate) enol ester, bromide salt] here?
The half-life was 180 min.

For `CC(=O)O[C@H](CC(=O)OC[C@H](NC(=O)OCc1ccccc1)C(=O)OCc1ccccc1)C[N+](C)(C)C` [serine, L-isomer, HO-(O-acetyl-L-carnitine ester) N-CBZ, benzyl ester], which half-life is on record?
Its half-life is 21 min.

Which half-life does the source give for `C[n+]1cccc(C(=O)OC[C@H](NC(=O)OCc2ccccc2)C(=O)OCc2ccccc2)c1` [serine, L-isomer, HO-trigonellate ester, N-CBZ, benzyl ester] here?
Its half-life is 5 min.

Which half-life does the source give for `C[C@]12CC[C@H]3[C@@H](CCC4=CC(=O)CC[C@@]43C)[C@@H]1CC[C@@H]2OC(=O)OCOC(=O)CCCCC[N+](C)(C)C` [testosterone-17-(6-trimethylammoniohexanoyloxymethyl) carbonate, bromide salt] here?
Its half-life is 19 min.

For `CCOC(=O)C[C@H](C[N+](C)(C)C)OC(=O)O[C@H]1CC[C@H]2[C@@H]3CCC4=CC(=O)CC[C@]4(C)[C@H]3CC[C@]12C` [testosterone-17-(L-carnitineethyl ester) carbonate, iodide salt], which half-life is on record?
Its half-life is 49 min.

For `CC(=O)O[C@H](CC(=O)O[C@H]1CC[C@H]2[C@@H]3CCC4=CC(=O)CC[C@]4(C)[C@H]3CC[C@]12C)C[N+](C)(C)C` [testosterone-17-(O-acetyl-L-carnitinate), chloride salt], which half-life is on record?
Its half-life is 5760 min.

With `CCCCCCCCCCCCCCCC(=O)O[C@H](CC(=O)O[C@H]1CC[C@H]2[C@@H]3CCC4=CC(=O)CC[C@]4(C)[C@H]3CC[C@]12C)C[N+](C)(C)C` [testosterone-17-(O-palmityl-L-carnitinate), chloride salt] as the compound, how does the half-life read?
The half-life was 7060 min.

Which half-life does the source give for `C[C@]12CC[C@H]3[C@@H](CCC4=CC(=O)CC[C@@]43C)[C@@H]1CC[C@@H]2OC(=O)OCOC(=O)C[N+](C)(C)C` [testosterone-17-betainoyloxymethyl carbonate, iodide salt] here?
Its half-life is 0.633 min.

With `C[C@]12CC[C@H]3[C@@H](CCC4=CC(=O)CC[C@@]43C)[C@@H]1CC[C@@H]2OC(=O)OCOC(=O)COC(=O)C[N+](C)(C)C` [testosterone-17-betainoyloxymethylcarbonyloxymethyl carbonate, iodide salt] as the compound, how does the half-life read?
Its half-life is 8.5 min.

For `C[C@]12CC[C@H]3[C@@H](CCC4=CC(=O)CC[C@@]43C)[C@@H]1CC[C@@H]2OC(=O)OCC[N+](C)(C)C` [testosterone-17-choline carbonate, bromide salt], which half-life is on record?
Its half-life is 29 min.

With `Cn1c(=O)c2c(ncn2COC(=O)C[N+](C)(C)C)n(C)c1=O` [theophylline-7-(N,N,N,-trimethylglycyloxymethyl), iodide salt] as the compound, how does the half-life read?
Its half-life is 0.5 min.

With `CN(C)CC(=O)OCn1cnc2c1c(=O)n(C)c(=O)n2C` [theophylline-7-(N,N-dimethylglycyloxymethyl] as the compound, how does the half-life read?
The half-life was 1680 min.

Which half-life does the source give for `Cn1c(=O)c2c(ncn2COC(=O)CCC[N+](C)(C)C)n(C)c1=O` [theophylline-7-[4-(N,N,N-trimethylamino)-butyroyloxymethyl], bromide salt] here?
Its half-life is 144 min.

For `CC(=O)O[C@H](CC(=O)O[C@H](C)[C@H](NC(=O)OCc1ccccc1)C(=O)OCc1ccccc1)C[N+](C)(C)C` [threonine, L-isomer, HO-(O-acetyl-L-carnitine ester), N-CBZ, benzyl ester], which half-life is on record?
Its half-life is 40 min.

For `C[C@@H](OC(=O)c1ccc[n+](C)c1)[C@H](NC(=O)OCc1ccccc1)C(=O)OCc1ccccc1` [threonine, L-isomer, HO-trigonellate ester, N-CBZ benzyl ester], which half-life is on record?
Its half-life is 40 min.

test: not given; conditions: in vivo; cited from earlier work

For `CCn1cc(C(=O)O)c(=O)c2ccc(C)nc21` [Nalidixic acid], which absorption is on record?
The absorption was “rapidly absorbed from the gastrointestinal tract”.
